Experimental data reported in publication PMC4892435, “Structure of astrotactin-2: a conserved vertebrate-specific and perforin-like membrane protein involved in neuronal development” (Open Biology, 2016).

Molecular target: T1, ASTN-2_701-1288 (Homo sapiens, UniProt O75129)
T1 construct: gene ASTN2; endodomain, residues 701-1288 in methods (crystal construct EGF-3 to C-terminus is printed 649-1288; borders may mix numberings); secreted from HEK293T, hexahistidine
T1 sequence (O75129 701-1288 isoform O75129-2): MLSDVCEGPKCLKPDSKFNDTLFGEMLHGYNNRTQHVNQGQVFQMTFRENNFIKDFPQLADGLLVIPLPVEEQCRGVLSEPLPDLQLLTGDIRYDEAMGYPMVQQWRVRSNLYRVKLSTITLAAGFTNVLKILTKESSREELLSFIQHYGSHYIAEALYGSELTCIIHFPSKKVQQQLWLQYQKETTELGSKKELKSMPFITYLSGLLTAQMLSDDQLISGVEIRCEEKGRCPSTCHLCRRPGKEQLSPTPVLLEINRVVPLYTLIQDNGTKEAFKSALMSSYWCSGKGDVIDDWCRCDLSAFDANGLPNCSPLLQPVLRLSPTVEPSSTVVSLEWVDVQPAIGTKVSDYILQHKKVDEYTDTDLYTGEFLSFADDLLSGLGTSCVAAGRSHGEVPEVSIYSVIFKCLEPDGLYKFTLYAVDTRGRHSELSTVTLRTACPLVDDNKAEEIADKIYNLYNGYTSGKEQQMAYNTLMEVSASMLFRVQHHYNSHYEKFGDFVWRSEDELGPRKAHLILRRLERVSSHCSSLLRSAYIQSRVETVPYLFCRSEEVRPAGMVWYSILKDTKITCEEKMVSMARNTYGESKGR
Test: SPR, Biacore T200, immobilised biotinylated ligand
Format: binding
Settings: pH 7.5, 20 °C, 150 mM NaCl; labelled compound (biotin, immobilised); one Kd printed jointly for PIP3 and PIP2; construct of this run not stated

| Substance | Kd |
| --- | --- |
| PtdIns(4,5)P2 (C-45B6a) | 30 µM |
| PtdIns(3,4,5)P3 (C-39B6a) | 30 µM |
